Laboratory results published in ChEMBL document CHEMBL1201862, “PubChem BioAssay data set” (2004).
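Results reflect a 48-hour exposure of cells in 96-well plates to compound at five concentrations. Here, GI50 denotes the concentration required for 50% inhibition of growth.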 The source made the active and inactive calls. Cut-off read from the data, not from the text of the source: active = GI50 up to about 1.1 µM and inactive = higher.

Tests used:
Experiment in all cases: DTP human tumour cell line panel, 48 h
HCT-15 = system: HCT-15
HCT-116 = system: HCT-116
SK-OV-3 = system: SK-OV-3
K562 = system: K562
SF-295 = system: SF-295
IGROV-1 = system: IGROV-1
RXF 393 = system: RXF 393
NCI-H460 = system: NCI-H460
SK-MEL-2 = system: SK-MEL-2
OVCAR-3 = system: OVCAR-3
MOLT-4 = system: MOLT-4
UO-31 = system: UO-31
HCC 2998 = system: HCC 2998
HL-60 = system: HL-60
NCI-H23 = system: NCI-H23
OVCAR-8 = system: OVCAR-8
SF-539 = system: SF-539
Malme-3M = system: Malme-3M
PC-3 = system: PC-3
BT-549 = system: BT-549

SMILES | GI50 (HCT-15) [µM] | GI50 (HCT-116) | GI50 (SK-OV-3) | GI50 (K562) | GI50 (SF-295) | GI50 (IGROV-1) | GI50 (RXF 393) | GI50 (NCI-H460) | GI50 (SK-MEL-2) | GI50 (OVCAR-3) | GI50 (MOLT-4) | GI50 (UO-31) | GI50 (HCC 2998) | GI50 (HL-60) | GI50 (NCI-H23) | GI50 (OVCAR-8) | GI50 (SF-539) | GI50 (Malme-3M) | GI50 (PC-3) | GI50 (BT-549)
CC(/C=C/C(=O)c1sc(-n2nc(-c3ccccc3)cc2-c2ccccc2)nc1C)=C\c1ccccc1 | 19.2 | 62.5 µM (inactive) | 38.4 µM (inactive) | 19.9 µM (inactive) | > 10 µM (inactive) | 98.4 µM (inactive) | > 10 µM (inactive) | 52.7 µM (inactive) | 34.3 µM (inactive) | 26.7 µM (inactive) | 9.06 µM (inactive) | 24 µM (inactive) | 23.7 µM (inactive) | 36.3 µM (inactive) | 8.3 µM (inactive) | 17.5 µM (inactive) | 52.1 µM (inactive) | 35.8 µM (inactive) | – | –
O=S(=O)(N=[Se](=O)(c1ccccc1)c1ccccc1)c1ccccc1 | > 100 | > 100 µM (inactive) | > 100 µM (inactive) | > 100 µM (inactive) | > 100 µM (inactive) | 28 µM (inactive) | – | > 100 µM (inactive) | 48.3 µM (inactive) | > 100 µM (inactive) | > 100 µM (inactive) | 58.1 µM (inactive) | > 100 µM (inactive) | 25.1 µM (inactive) | > 100 µM (inactive) | > 100 µM (inactive) | > 100 µM (inactive) | – | > 100 µM (inactive) | –
CC(C)N(C(=O)C12C3C4C5(C#N)C3C1(C#N)C5C42I)C(C)C (configuration not stated) | > 78.5 | 17.4 µM (inactive) | > 100 µM (inactive) | > 42.2 µM (inactive) | > 100 µM (inactive) | > 100 µM (inactive) | > 100 µM (inactive) | > 53.6 µM (inactive) | > 100 µM (inactive) | > 100 µM (inactive) | 40.8 µM (inactive) | > 100 µM (inactive) | > 100 µM (inactive) | > 41 µM (inactive) | > 100 µM (inactive) | > 85.5 µM (inactive) | > 100 µM (inactive) | > 100 µM (inactive) | – | –
CCC(C)C1NC(=O)CNC(=O)C2Cc3c([nH]c4cc(O)ccc34)[S+]([O-])CC(NC(=O)CNC1=O)C(=O)NC(CC(=O)O)C(=O)N1CC(O)CC1C(=O)NC(C(C)C(O)CO)C(=O)N2 (configuration not stated) | 10.4 | 6.37 µM (inactive) | 13.2 µM (inactive) | 3.93 µM (inactive) | 1.51 µM (inactive) | 4.39 µM (inactive) | 0.579 µM (active) | 2.11 µM (inactive) | 2.08 µM (inactive) | 2.47 µM (inactive) | 3.72 µM (inactive) | 1.55 µM (inactive) | 0.653 µM (active) | 28.6 µM (inactive) | 1.83 µM (inactive) | 3.7 µM (inactive) | 0.45 µM (active) | 1.19 µM (inactive) | – | –
[N-]=[N+]=NI1OC(=O)c2ccccc21 | 50.7 | > 100 µM (inactive) | > 100 µM (inactive) | 36.6 µM (inactive) | > 100 µM (inactive) | > 100 µM (inactive) | 32.2 µM (inactive) | – | > 100 µM (inactive) | > 100 µM (inactive) | 66.8 µM (inactive) | > 100 µM (inactive) | > 100 µM (inactive) | 40.5 µM (inactive) | > 100 µM (inactive) | > 100 µM (inactive) | > 100 µM (inactive) | – | > 100 µM (inactive) | –
CN(CCO)/N=N/c1n[nH]cc1C(N)=O | > 100 | > 100 µM (inactive) | > 100 µM (inactive) | > 100 µM (inactive) | > 100 µM (inactive) | > 100 µM (inactive) | > 100 µM (inactive) | > 100 µM (inactive) | > 100 µM (inactive) | > 100 µM (inactive) | > 100 µM (inactive) | > 100 µM (inactive) | > 100 µM (inactive) | > 100 µM (inactive) | > 100 µM (inactive) | > 100 µM (inactive) | > 100 µM (inactive) | > 100 µM (inactive) | – | –
CC1(c2cccc(C3CCC4(C=CC3=O)OCCO4)c2)OCCO1 (configuration not stated) | 5.36 | 4.2 µM (inactive) | 30.8 µM (inactive) | 3.08 µM (inactive) | 34.3 µM (inactive) | 18.4 µM (inactive) | 5.9 µM (inactive) | 16.4 µM (inactive) | 12.9 µM (inactive) | 5.2 µM (inactive) | 2.84 µM (inactive) | 6.64 µM (inactive) | 18.6 µM (inactive) | 1.62 µM (inactive) | 11.5 µM (inactive) | 13.5 µM (inactive) | 14.8 µM (inactive) | 4.71 µM (inactive) | 17.2 µM (inactive) | –
CCN(CC)c1ccc2c(c1)Nc1cc(=C(C#N)C#N)c3ccccc3c1=N2 | – | 82.6 µM (inactive) | > 100 µM (inactive) | > 100 µM (inactive) | > 100 µM (inactive) | > 100 µM (inactive) | > 100 µM (inactive) | 95.3 µM (inactive) | > 100 µM (inactive) | > 100 µM (inactive) | > 100 µM (inactive) | > 100 µM (inactive) | > 100 µM (inactive) | > 100 µM (inactive) | > 100 µM (inactive) | 61 µM (inactive) | > 100 µM (inactive) | > 100 µM (inactive) | – | –
O=[N+]([O-])c1cccc2c1[nH]c1c(-c3ccccc3)nccc12 | 2.61 | 2.39 µM (inactive) | 2.01 µM (inactive) | 1.99 µM (inactive) | 3.08 µM (inactive) | 1.8 µM (inactive) | 2.54 µM (inactive) | 2.33 µM (inactive) | 1.07 µM (active) | 1.36 µM (inactive) | 1.71 µM (inactive) | 1.11 µM (active) | 3.31 µM (inactive) | 1.63 µM (inactive) | 2.07 µM (inactive) | 3.52 µM (inactive) | 3.19 µM (inactive) | 2.24 µM (inactive) | – | –
CN(C)CCNC(=O)c1cccc2[nH]c(-c3ccccn3)nc12 | 37.2 | 19.4 µM (inactive) | 32.6 µM (inactive) | > 55.6 µM (inactive) | 31 µM (inactive) | 35.1 µM (inactive) | 51.2 µM (inactive) | 20.8 µM (inactive) | 39.7 µM (inactive) | 30.7 µM (inactive) | 20.7 µM (inactive) | 16.8 µM (inactive) | 49 µM (inactive) | 33.7 µM (inactive) | 43.7 µM (inactive) | 27.9 µM (inactive) | 43.5 µM (inactive) | 24.9 µM (inactive) | – | –
CCOC(=O)[C@H](Cc1ccc(O)cc1)/N=C1/[C@H]2CCC[C@]1(O)[C@@](C)([N+](=O)[O-])C2 | > 100 | > 100 µM (inactive) | > 100 µM (inactive) | > 100 µM (inactive) | > 100 µM (inactive) | > 100 µM (inactive) | > 100 µM (inactive) | > 100 µM (inactive) | – | > 100 µM (inactive) | > 100 µM (inactive) | > 100 µM (inactive) | > 100 µM (inactive) | > 100 µM (inactive) | > 100 µM (inactive) | > 100 µM (inactive) | > 100 µM (inactive) | > 100 µM (inactive) | – | > 100 µM (inactive)
C=C(CCC=C(C)C)C1CC=C(C)CC1 (configuration not stated) | 18.2 | 19.4 µM (inactive) | > 100 µM (inactive) | – | 19.9 µM (inactive) | 13.6 µM (inactive) | 13.9 µM (inactive) | 19.3 µM (inactive) | 17.7 µM (inactive) | 29.5 µM (inactive) | – | 16.4 µM (inactive) | – | – | 17.7 µM (inactive) | 36 µM (inactive) | 25.9 µM (inactive) | > 100 µM (inactive) | – | 95.7 µM (inactive)
CC(=O)OCCOCNC(=S)N/N=C/c1ccc([N+](=O)[O-])o1 | 52.6 | 40 µM (inactive) | > 100 µM (inactive) | 37.1 µM (inactive) | 40.6 µM (inactive) | > 100 µM (inactive) | > 100 µM (inactive) | 28.7 µM (inactive) | 44.1 µM (inactive) | 33.6 µM (inactive) | – | > 100 µM (inactive) | 40.7 µM (inactive) | 11.6 µM (inactive) | 26.7 µM (inactive) | 77.3 µM (inactive) | 43.9 µM (inactive) | 94.8 µM (inactive) | – | –
COc1ccc(/C=N/NS(=O)(=O)c2ccccc2)cc1 | > 100 | > 100 µM (inactive) | > 100 µM (inactive) | > 100 µM (inactive) | 93.5 µM (inactive) | > 100 µM (inactive) | > 100 µM (inactive) | > 100 µM (inactive) | > 100 µM (inactive) | > 100 µM (inactive) | > 100 µM (inactive) | > 100 µM (inactive) | > 100 µM (inactive) | > 100 µM (inactive) | > 100 µM (inactive) | > 100 µM (inactive) | > 100 µM (inactive) | > 100 µM (inactive) | – | –
Cc1nc(-n2nc(-c3ccccc3)cc2-c2ccccc2)sc1C(=O)CC(=O)C(=O)Nc1ccc(Cl)c(Cl)c1 | 56.1 | 64.6 µM (inactive) | 51.3 µM (inactive) | 41.6 µM (inactive) | 79.3 µM (inactive) | > 100 µM (inactive) | > 100 µM (inactive) | 71.4 µM (inactive) | > 100 µM (inactive) | 69.2 µM (inactive) | 59.6 µM (inactive) | 77.1 µM (inactive) | > 100 µM (inactive) | > 100 µM (inactive) | 43.1 µM (inactive) | > 100 µM (inactive) | 67.1 µM (inactive) | > 100 µM (inactive) | – | –
CN1C(=O)C2C(C1=O)C1(O)c3ccccc3C2(N)c2ccccc21 (configuration not stated) | > 100 | > 100 µM (inactive) | > 100 µM (inactive) | > 100 µM (inactive) | > 100 µM (inactive) | > 100 µM (inactive) | > 100 µM (inactive) | > 100 µM (inactive) | > 100 µM (inactive) | > 100 µM (inactive) | > 100 µM (inactive) | > 100 µM (inactive) | > 100 µM (inactive) | > 100 µM (inactive) | > 100 µM (inactive) | > 100 µM (inactive) | > 100 µM (inactive) | > 100 µM (inactive) | – | –
